Measurements: patent publication US20240271096A1, “EFFICIENT DIFFERENTIATION OF SECOND HEART FIELD CARDIAC PROGENITOR CELLS AND RIGHT VENTRICLE CARDIOMYOCYTES FROM HUMAN PLURIPOTENT STEM CELLS” (Wisconsin Alumni Research Foundation, priority 2023, published 2024)

Tests used:
Assay type in all cases: cell-based, human
hiPSC-derived cells = test: Flow cytometry of cardiac troponin T (cTnT); conditions: 1 μmol/L on day 0; day 12; n=4; mean±SD; control 82.1±2.6%, p=0.04
Experimental: (§1) For LV-cardiomyocyte differentiation, cardiac differentiation was performed according to the protocol published by (Lian et al., 2012, Proc Natl Acad Sci USA 109:[…]-57). Cells were dissociated with StemPro Accutase Cell Dissociation Reagent at 37° C. for 5 minutes. HESCs were seeded on Matrigel-coated 24-well plates (Corning) in StemFlex Medium supplemented with 10 μmol/[…] were seeded on iMatrix-511-coated 12-well plates (Corning) in StemFit A[…] supplemented with 10 μmol/[…] at seeding densities of 1×10^5 cells/cm^2 for hESCs and 1.25-2.5×10^4 cells/cm^2 for hiPSCs. Cells were cultured for 4 days until the start of differentiation (day 0). On day 0, the medium was changed to RPMI 1640 Medium (Thermo Fisher Scientific) supplemented with B-27 Supplement minus insulin (Thermo Fisher Scientific) (RPMI/B27-insulin) or B-27 Supplement with insulin (Thermo Fisher Scientific), and 12 μmol/L CHIR 99021 (SelleckChem, Houston, TX, United States), and the cells incubated in this medium for 24 h (day 1). On day 1, the medium was changed to RPMI/B27-insulin. […] On day 3, the medium was changed to RPMI/B27-insulin supplemented with 5 μmol/L IWP2 (SelleckChem) and on day 5, the medium was changed to 1 ml RPMI/B27-insulin. […] The cells were resuspended in 0.5% bovine serum albumin (Merck)/PBS and analyzed with an Attune NxT Flow Cytometer (Thermo Fisher Scientific).

hPSC-CMs = test: Quantitative PCR of purified hiPSC-derived cardiomyocytes; conditions: DMH1-treated cell-derived cardiomyocytes at day 34
Experimental: as §1, with “PowerUpTM SYBR Green Master Mix (Thermo Fisher Scientific) and QuantStudio 1 (Thermo Fisher Scientific) were used for quantitative PCR (q-PCR), wherein q-PCR data were processed using” for “On day 3,”, “ΔΔCT method.” for “medium was changed to RPMI/B27-insulin supplemented with 5 μmol/L IWP2 (SelleckChem) and on day 5, the medium was changed to 1 ml RPMI/B27-insulin.”, “Data” for “The cells”, “were” for “were resuspended in 0.5% bovine serum albumin (Merck)/PBS and”, “the web-based tool of GeneGlobe Data Analysis Center (Qiagen).” for “an Attune NxT Flow Cytometer (Thermo Fisher Scientific).”

reporterless hiPSC line = test: Immunostaining of marker proteins in hiPSC-derived cardiac progenitor cells and cardiomyocytes
Experimental: For LV-cardiomyocyte differentiation, cardiac differentiation was performed according to the protocol published by (Lian et al., 2012, Proc Natl Acad Sci USA 109:[…]-57). Cells were dissociated with StemPro Accutase Cell Dissociation Reagent at 37° C. for 5 minutes. HESCs were seeded on Matrigel-coated 24-well plates (Corning) in StemFlex Medium supplemented with 10 μmol/[…] were seeded on iMatrix-511-coated 12-well plates (Corning) in StemFit A[…] supplemented with 10 μmol/[…] at seeding densities of 1×10^5 cells/cm^2 for hESCs and 1.25-2.5×10^4 cells/cm^2 for hiPSCs. Cells were cultured for 4 days until the start of differentiation (day 0). On day 0, the medium was changed to RPMI 1640 Medium (Thermo Fisher Scientific) supplemented with B-27 Supplement minus insulin (Thermo Fisher Scientific) (RPMI/B27-insulin) or B-27 Supplement with insulin (Thermo Fisher Scientific), and 12 μmol/L CHIR 99021 (SelleckChem, Houston, TX, United States), and the cells incubated in this medium for 24 h (day 1). On day 1, the medium was changed to RPMI/B27-insulin. […] On day 3, the medium was changed to RPMI/B27-insulin supplemented with 5 μmol/L IWP2 (SelleckChem) and on day 5, the medium was changed to 1 ml RPMI/B27-insulin. From day 7, the cells were cultured with RPMI/B27-insulin, and the cells were fed every other day. On day 12, the cells were washed with PBS (Thermo Fisher Scientific) and cultured with DMEM or RPMI, no glucose supplemented with 8 mmol/L L-(+)-Lactic acid (Merck) (Tohyama et al., 2013 Cell Stem Cell, 12:127-37). The medium was changed every other day until day 17. After day 17, the cells were cultured with RPMI/B27 and fed every 2 to 3 days. For long-term culture, the cells were dissociated with TrypLETM Select Enzyme (10×) (Thermo Fisher Scientific) at 37° C. for 15-20 minutes and seeded on Matrigel- or iMatrix-511-coated plates. […] For FIG. 15A and FIG. 15B, dorsomorphin (DM) or 3 μg/L insulin were added on day 0 (for 24 hours), 1, 3, or 5 (for 48 hours). Cells were plated on iMatrix-511-coated plates and fixed in 4% paraformaldehyde (Nacalai, Kyoto, Japan) for 15 minutes. Cells were permeabilized with 0.1% Triton X-100 (Sigma-Aldrich, St. Louis, MO, United States)/PBS and blocked with 10% goat serum (Sigma-Aldrich). Primary and secondary antibodies were diluted in 0.1% Triton X-100/PBS with 5% goat serum and stained with Hoechst 33342 (Thermo Fisher Scientific) at 1 μg/mL, mouse anti-cardiac troponin T monoclonal IgG1 (GTX28295, GeneTex, Irvine, CA, United States) diluted at 1:16000, mouse anti-α-actinin monoclonal IgG1 (A7811, Sigma-Aldrich) diluted at 1:1000, rabbit anti-MLC2v monoclonal IgG (ab92721, Abcam, Cambridge, United Kingdom) diluted at 1:500, rabbit anti-CXCR4 monoclonal IgG (ab181020, Abcam) diluted at 1:2000, rabbit anti-NKX2-5 monoclonal IgG (Cat #. […], Cell Signaling Technology, Danvers, MA, United States) diluted at 1:2500, mouse anti-Nav1.5 (Car #. ASC-013, Alomone Labs) diluted at 1:1000, rabbit anti-connexin 43 (Cat #. 83649, Cell Signaling Technology) diluted at 1:1000, and mouse anti-TBX5 monoclonal IgG2a (Cat #. sc-515536, Santa Cruz Biotechnology, Dallas, TX, United States) diluted at 1:500. These cells were then incubated with a secondary antibody, goat anti-mouse or rabbit polyclonal IgG conjugated with iFluor 488 or 555 (AAT Bioquest, Sunnyvale, CA, United States) diluted at 1:1000, for 1 hour at room temperature. The cells were then observed with IX71 (Olympus, Tokyo, Japan) or EVOS FL Auto (Thermo Fisher Scientific) and images processed with ImageJ ([…] al., 2012, Nat Methods, 9:671-5).

Compound | percentages of cTnT-positive cells (hiPSC-derived cells) [%] | expression of TGFB1, COL1A1, COL1A2, COL3A1, and COL5A1 (qPCR) (hPSC-CMs) | CXCR4 expression (immunostaining) (reporterless hiPSC line; 0.5 μmol/L on day 0, day 7) | MLC2v, ventricular marker protein (immunostaining) (reporterless hiPSC line; 0.5 μmol/L on day 0, day 35) | NKX2-5-positive/cTnT-positive cardiomyocytes (reporterless hiPSC line; DMH1 on differentiation day 0, day 10) | TBX5 expression (immunostaining) (reporterless hiPSC line; DMH1 on differentiation day 0, day 10, dose-dependent) | immunostaining signal of Nav1.5 and Connexin 43 (reporterless hiPSC line; cardiomyocytes day 34, vs control)
c1cc(-c2cnn3cc(-c4ccc(OCCN5CCCCC5)cc4)cnc23)ccn1 [dorsomorphin] | 70.4±7.3 |  |  |  |  |  | 
CC(C)Oc1ccc(-c2cnc3c(-c4ccnc5ccccc45)cnn3c2)cc1 [DMH1, dorsomorphin homologue 1, reference compound] |  | reduced | upregulated | expressed | induced | reduced | reduction
